# pIC50: −log10 of the molar value.
# Target: hKIF18A (1-374) (Homo sapiens (Human), UniProt Q8NI77)
# Assay: Inhibition of KIF18A microtubule-dependent ATPase activity (ADP-Glo)
# Details: not given
# hKIF18A (1-374), sequence (Q8NI77 whole entry, looked up): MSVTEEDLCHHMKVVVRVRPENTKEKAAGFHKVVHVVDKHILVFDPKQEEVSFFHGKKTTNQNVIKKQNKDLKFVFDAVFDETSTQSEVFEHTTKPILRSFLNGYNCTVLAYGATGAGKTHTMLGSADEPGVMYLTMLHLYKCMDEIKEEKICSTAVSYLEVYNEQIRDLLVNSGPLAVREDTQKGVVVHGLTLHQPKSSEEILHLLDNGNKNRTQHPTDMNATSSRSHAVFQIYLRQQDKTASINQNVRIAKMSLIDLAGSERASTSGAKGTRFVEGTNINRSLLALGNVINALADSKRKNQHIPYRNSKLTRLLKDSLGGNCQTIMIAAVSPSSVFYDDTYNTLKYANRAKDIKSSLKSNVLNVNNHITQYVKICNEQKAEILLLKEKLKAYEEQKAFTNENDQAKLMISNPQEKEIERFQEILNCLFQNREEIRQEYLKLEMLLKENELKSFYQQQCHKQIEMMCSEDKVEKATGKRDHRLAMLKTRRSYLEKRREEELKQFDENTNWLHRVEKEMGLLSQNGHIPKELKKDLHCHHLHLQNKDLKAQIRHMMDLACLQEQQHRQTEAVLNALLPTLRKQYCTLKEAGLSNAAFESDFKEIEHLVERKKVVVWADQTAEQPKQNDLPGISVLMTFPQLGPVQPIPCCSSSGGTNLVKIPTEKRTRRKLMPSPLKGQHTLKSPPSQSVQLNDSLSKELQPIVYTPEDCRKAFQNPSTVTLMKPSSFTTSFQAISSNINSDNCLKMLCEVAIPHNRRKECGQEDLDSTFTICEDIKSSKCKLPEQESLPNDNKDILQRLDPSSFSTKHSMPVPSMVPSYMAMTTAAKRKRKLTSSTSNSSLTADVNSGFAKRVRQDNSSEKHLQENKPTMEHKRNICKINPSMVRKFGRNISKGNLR
# hKIF18A (1-374), sequence (Q2XVP4 whole entry partner, looked up): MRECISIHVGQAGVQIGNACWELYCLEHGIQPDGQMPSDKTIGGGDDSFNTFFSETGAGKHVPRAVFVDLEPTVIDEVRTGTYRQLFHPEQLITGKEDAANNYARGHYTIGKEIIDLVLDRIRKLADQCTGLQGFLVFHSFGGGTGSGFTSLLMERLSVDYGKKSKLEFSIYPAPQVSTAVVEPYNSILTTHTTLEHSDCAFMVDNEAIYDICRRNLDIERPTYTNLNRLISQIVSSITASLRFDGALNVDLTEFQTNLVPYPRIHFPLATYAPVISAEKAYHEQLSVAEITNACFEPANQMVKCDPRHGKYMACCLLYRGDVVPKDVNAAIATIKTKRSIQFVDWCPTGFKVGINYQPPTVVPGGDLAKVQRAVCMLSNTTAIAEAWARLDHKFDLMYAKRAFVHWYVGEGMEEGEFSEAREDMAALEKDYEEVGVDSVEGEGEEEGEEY
# hKIF18A (1-374), sequence (P02554 whole entry partner, looked up): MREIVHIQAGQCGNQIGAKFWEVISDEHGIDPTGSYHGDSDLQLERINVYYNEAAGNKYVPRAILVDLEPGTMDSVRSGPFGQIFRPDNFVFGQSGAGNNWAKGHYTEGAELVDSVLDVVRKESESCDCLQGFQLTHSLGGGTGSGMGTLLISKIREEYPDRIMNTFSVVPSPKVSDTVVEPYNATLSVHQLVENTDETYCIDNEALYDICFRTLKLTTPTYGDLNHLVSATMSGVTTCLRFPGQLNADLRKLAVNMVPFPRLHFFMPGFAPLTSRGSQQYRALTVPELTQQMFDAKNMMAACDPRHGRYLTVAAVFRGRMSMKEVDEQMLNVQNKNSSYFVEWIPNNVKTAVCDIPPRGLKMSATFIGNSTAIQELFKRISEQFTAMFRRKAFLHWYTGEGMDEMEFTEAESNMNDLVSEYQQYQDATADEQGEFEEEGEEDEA
row,pIC50,Compound
1,7.96,"C[C@@H]1CCN(S(=O)(=O)c2cccc(C(=O)N3CC4(CCC5(CC5)CC4)c4cc(NS(C)(=O)=O)ccc43)c2)C1 [(R)-Compound 249, (R)-N-(1″-(3-((3-methylpyrrolidin-1-yl)sulfonyl)benzoyl)dispiro[cyclopropane-1,1′-cyclohexane-4′,3″-indolin]-5″- yl)methanesulfonamide]"

# Same assay, conditions: KIF18A microtubule-dependent ATPase activity, biochemical assay
row,Compound,pIC50
1,"CS(=O)(=O)Nc1ccc2c(c1)C1(CCC3(CC3)CC1)CN2C(=O)c1cccc(C(O)CN2CCC(F)(F)CC2)c1 (stereo not drawn) [Compound 315, N-(1″-(3-(2-(4,4-difluoropiperidin-1-yl)-1-hydroxyethyl)benzoyl)dispiro[cyclopropane-1,1′-cyclohexane-4′,3″-indolin]-5″-yl)methanesulfonamide]",7.28
2,"CC(C)(CO)NS(=O)(=O)c1cccc(C(=O)N2CC3(CCC4(CC4)CC3)c3cc(NS(C)(=O)=O)ccc32)c1 [Compound 220, N-(1-hydroxy-2-methylpropan-2-yl)-3-(5″- (methylsulfonamido)dispiro[cyclopropane-1,1′-cyclohexane-4′,3″-indoline]-1″-carbonyl)benzenesulfonamide]",7.60
3,"CC1CN(S(=O)(=O)c2cccc(C(=O)N3CC4(CCC5(CC5)CC4)c4cc(NS(C)(=O)=O)ccc43)c2)C1 [Compound 260, N-(1″-(3-((3-methylazetidin-1-yl)sulfonyl)benzoyl)dispiro[cyclopropane-1,1′-cyclohexane-4′,3″-indolin]-5″- yl)methanesulfonamide]",7.92
4,"CC(C)(C)NS(=O)(=O)c1cc(C(=O)N2CC3(CCC(F)(F)CC3)c3cc(NS(C)(=O)=O)ccc32)cs1 [Compound 277, N-(tert-butyl)-4-(4,4-difluoro-5′-(methylsulfonamido)spiro[cyclohexane-1,3′-indoline]-1′-carbonyl)thiophene-2-sulfonamide]",7.39
5,"CCS(=O)(=O)Nc1ccc2c(c1)C1(CCC3(CC3)CC1)CN2C(=O)c1cccc(S(=O)(=O)NC2CCC2)c1 [Compound 261, N-cyclobutyl-3-(5″- (ethylsulfonamido)dispiro[cyclopropane-1,1′-cyclohexane-4′,3″-indoline]-1″- carbonyl)benzenesulfonamide]",8.03

# Now from value to compound:
row,pIC50,Compound
1,5.59,"O=C(c1cccc(S(=O)(=O)N2CCCCC2)c1)N1CC2(CCCC2)c2c(F)cccc21 [Compound 1′, (4′-fluorospiro[cyclopentane-1,3′-indolin]-1′-yl)(3-(piperidin-1-ylsulfonyl)phenyl)methanone]"
2,6.34,"CN=S(=O)(c1cccc(C(=O)N2CC3(CCCCC3)c3cc(NS(C)(=O)=O)ccc32)c1)C1CCCC1 (stereo not drawn) [Compound 67, N-(1′-(3-(N-methylcyclopentanesulfonimidoyl)benzoyl)spiro[cyclohexane-1,3′-indolin]-5′-yl)methanesulfonamide]"
3,7.40,"CS(=O)(=O)Nc1ccc2c(c1)C1(CCCCC1)CN2C(=O)c1cccc(S(=O)(=O)N2CCCCC2)c1 [Compound 240, N-(1′-(3-(piperidin-1-ylsulfonyl)benzoyl)spiro[cyclohexane-1,3′-indolin]-5′-yl)methanesulfonamide]"
4,7.66,"C=CCC1CC1NS(=O)(=O)c1cccc(C(=O)N2CC3(CCC4(CC4)CC3)c3cc(NS(C)(=O)=O)ccc32)c1 (stereo not drawn) [Compound 235, N-(2-allylcyclopropyl)-3-(5″- (methylsulfonamido)dispiro[cyclopropane-1,1′-cyclohexane-4′,3″-indoline]-1″-carbonyl)benzenesulfonamide]"
5,7.72,"CS(=O)(=O)Nc1ccc2c(c1)C1(CCC3(CC3)CC1)CN2C(=O)c1cccc([C@@H](O)C2CCC2)c1 (single isomer, unassigned) [Compound 313a]"
6,7.77,"CCS(=O)(=O)Nc1ccc2c(c1)C1(CCC3(CC3)CC1)CN2C(=O)c1cccc(S(=O)(=O)NC2CC(F)(F)C2)c1 [Compound 293, N-(3,3-difluorocyclobutyl)-3-(5″- (ethylsulfonamido)dispiro[cyclopropane-1,1′-cyclohexane-4′,3″-indoline]-1″- carbonyl)benzenesulfonamide]"
